Experimental findings from US8232406B2, “c-MET protein kinase inhibitors” (Vertex Pharmaceuticals Incorporated, priority 2006, dated 2012) are described below.

As usually defined, the pKi is −log10 of the Ki, conventionally taken in molar units. Read a high pKi as a small Ki.

pKi: −log10 of the molar value. Where only a bound is given, the exact number is not on record here.

Sequence of c-MET (P08581 25-1390): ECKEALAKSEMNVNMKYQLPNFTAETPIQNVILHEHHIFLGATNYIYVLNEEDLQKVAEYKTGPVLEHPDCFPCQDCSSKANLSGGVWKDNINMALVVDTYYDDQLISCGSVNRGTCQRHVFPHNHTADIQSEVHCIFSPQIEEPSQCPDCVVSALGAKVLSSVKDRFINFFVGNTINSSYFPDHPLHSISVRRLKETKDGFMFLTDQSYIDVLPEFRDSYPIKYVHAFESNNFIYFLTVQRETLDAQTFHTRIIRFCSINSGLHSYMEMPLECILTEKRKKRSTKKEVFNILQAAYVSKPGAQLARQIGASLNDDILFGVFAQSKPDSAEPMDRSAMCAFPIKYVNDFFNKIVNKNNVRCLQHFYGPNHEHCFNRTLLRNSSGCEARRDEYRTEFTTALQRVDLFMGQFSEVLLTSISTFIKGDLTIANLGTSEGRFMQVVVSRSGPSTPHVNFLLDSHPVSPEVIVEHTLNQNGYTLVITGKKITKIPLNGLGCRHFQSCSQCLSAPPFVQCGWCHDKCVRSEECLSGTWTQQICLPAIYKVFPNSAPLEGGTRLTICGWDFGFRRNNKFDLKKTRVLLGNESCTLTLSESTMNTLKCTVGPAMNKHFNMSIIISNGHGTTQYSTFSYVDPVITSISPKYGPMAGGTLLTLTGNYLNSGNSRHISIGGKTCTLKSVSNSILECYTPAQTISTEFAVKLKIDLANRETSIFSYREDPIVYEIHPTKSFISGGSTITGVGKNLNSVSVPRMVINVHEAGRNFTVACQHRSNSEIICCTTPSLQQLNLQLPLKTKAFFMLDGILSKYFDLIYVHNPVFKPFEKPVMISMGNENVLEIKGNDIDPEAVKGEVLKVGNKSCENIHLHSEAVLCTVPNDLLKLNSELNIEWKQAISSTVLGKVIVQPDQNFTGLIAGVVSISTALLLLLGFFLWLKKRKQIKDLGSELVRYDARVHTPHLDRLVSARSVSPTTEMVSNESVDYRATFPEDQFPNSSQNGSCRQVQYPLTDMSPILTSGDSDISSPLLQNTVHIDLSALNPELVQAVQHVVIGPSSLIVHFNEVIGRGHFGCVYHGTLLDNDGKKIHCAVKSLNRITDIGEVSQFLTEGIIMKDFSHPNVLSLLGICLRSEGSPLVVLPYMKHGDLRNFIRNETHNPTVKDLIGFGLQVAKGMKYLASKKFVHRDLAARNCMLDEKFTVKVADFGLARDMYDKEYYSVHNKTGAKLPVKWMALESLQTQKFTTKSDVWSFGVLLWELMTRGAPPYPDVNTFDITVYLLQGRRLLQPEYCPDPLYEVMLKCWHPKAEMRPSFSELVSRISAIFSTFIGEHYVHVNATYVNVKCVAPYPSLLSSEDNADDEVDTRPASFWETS

In the test the target is c-MET (Homo sapiens, UniProt P08581). The experiment in a line: Ki determination for the inhibition of c-MET (standard radiometric 33P-ATP kinase assay, polyE4Y substrate). It is filed as biochemical. The settings on record: 1.0 nM c-Met, 35 μM ATP, 0.5 mg/mL polyE4Y, 20 min; competitive tight-binding fit. As for the experimental part:
Ki Determination for the Inhibition of c-MET
Compounds of the invention were screened for their ability to inhibit c-MET kinase activity using a standard radiometric assay. Briefly, in this kinase assay the transfer of the terminal ^33P-phosphate in ^33P-ATP to substrate polyE4Y is interrogated. The assay was carried out in 96-well plates to a final volume of 100 μL per well containing 1.0 nM c-Met, 100 mM HEPES (pH 7.5), 10 mM MgCl2, 25 mM NaCl, 0.01% BSA, 1 mM DTT, 0.5 mg/mL polyE4Y, and 35 μM ATP. Accordingly, compounds of the invention were dissolved in DMSO to make 10 mM initial stock solutions. Serial dilutions in DMSO were then made to obtain the final solutions for the assay. A 1.5 μL aliquot of DMSO or inhibitor in DMSO was added to each well. The reaction was initiated by the addition of ^33P-ATP and polyE4Y (obtained from Sigma). After 20 min, the reaction was quenched with 50 μL of 30% trichloroacetic acid (TCA) containing 4 mM ATP. The reaction mixture was transferred to the 0.66 mm GF filter plates (Corning) and washed three times with 5% TCA. Following the addition of 50 μL of Ultimate Gold™ high efficiency scintillant (Packard Bioscience), the samples were counted in a Packard TopCount NXT Microplate Scintillation and Luminescence Counter (Packard BioScience). The Ki values were calculated using Microsoft Excel Solver macros to fit the data to the kinetic model for competitive tight-binding inhibition.
Take `Nc1ncc(-c2ccc(F)cc2)cc1-c1nncn1-c1cccc(F)c1F` [I-A-112]: the pKi was 6.00 to 7.00.

With `Nc1ncc(-c2ccc(CO)cc2)cc1-c1nnnn1-c1cccc(Cl)c1Cl` [I-A-90], the pKi is not below 7.00.

As for `CC(C)(C)C(=O)Nc1ccc(-c2cnc(N)c(-c3nnnn3-c3cccc(F)c3F)c2)cc1` [I-A-194], the negative-log Ki (pKi) is 6.00 to 7.00.

Compound `Nc1ncc(C2=CCN(C(=O)[C@@H]3CCCN3)CC2)cc1-c1nnnn1-c1cccc(F)c1F` [I-A-504] had a pKi not below 7.00.

For `Nc1ncc(-c2cc3c(s2)CCNCC3)cc1-c1nnnn1-c1cccc(Cl)c1F` [I-A-481], the pKi was not below 7.00.

`CN1CCC[C@H]1C(=O)N1CC=C(c2cnc(N)c(-c3nnnn3-c3cccc(F)c3F)c2)CC1` [I-A-503] had a negative logarithm of the Ki (pKi) not below 7.00.

The compound `CN(C)Cc1ccc(-c2cnc(N)c(-c3nc4cc(F)ccc4n3-c3cccc(Cl)c3F)c2)cc1` [I-D-22] had a pKi of 6.00 to 7.00.

In the case of `COC[C@H]1CCCN1Cc1ccc(-c2cnc(N)c(-c3nnnn3-c3cccc(F)c3F)c2)cc1` [I-A-264], the pKi is not below 7.00.

In turn, `Nc1ncc(-c2ccc(CN3CCN(CCO)CC3)cc2)cc1-c1nnnn1-c1cccc(Cl)c1Cl` [I-A-104] showed a pKi not below 7.00.

In turn, `Nc1ncc(-c2ccc(C3CCNCC3)s2)cc1-c1nnnn1-c1cccc(Cl)c1F` [I-A-532] had a negative-log Ki (pKi) not below 7.00.

`Nc1ncc(-c2cn(C3CCOCC3)nn2)cc1-c1nnnn1-c1cccc(F)c1F` [I-A-485] gave a pKi not below 7.00.

In the case of `Nc1ncc(C2=CCN(C(=O)c3ccncc3)CC2)cc1-c1nnnn1-c1cccc(F)c1F` [I-A-518], the negative logarithm of the Ki (pKi) was not below 7.00.

The compound `Nc1ncc(C2=CCN(C3CCNCC3)CC2)cc1-c1nnnn1-c1cccc(F)c1F` [I-A-424] showed a pKi of 6.00 to 7.00.

`Nc1ncc(-c2cccnc2)cc1-c1ncsc1-c1cccc(Cl)c1Cl` [I-C-8, 3-(5-(2,3-Dichlorophenyl)thiazol-4-yl)-5-(pyridin-3-yl)pyridin-2-amine] gave a negative logarithm of the Ki (pKi) of 6.00 to 7.00.

Consider `CC(C)(C)OC(=O)N1CC=C(c2cnc(N)c(-c3nnnn3-c3cccc(F)c3F)c2)CC1` [I-A-506], for which the pKi was not below 7.00.

`Nc1ncc(-c2cnc3ccccc3c2)nc1-c1nncn1-c1cccc(F)c1F` [I-A-33] gave a pKi of 6.00 to 7.00.

`CN(C)Cc1ccc(-c2cnc(N)c(-c3nnsc3-c3cccc(Cl)c3Cl)c2)cc1` [I-C-5] gave a pKi not below 7.00.

In the case of `CN(C)Cc1ccc(-c2cnc(N)c(-c3nnnn3-c3cccc(F)c3F)n2)cc1` [I-A-48], the pKi was not below 7.00.

`CN1CCN(c2ccc(-c3cnc(N)c(-c4nc5cnccc5n4-c4cccc(F)c4F)c3)cc2)CC1` [I-D-2] had a pKi not below 7.00.

The compound `CCC(CC)C(=O)Nc1ccc(-c2cnc(N)c(-c3nnnn3-c3cccc(F)c3F)c2)cc1` [I-A-197] had a pKi not below 7.00.

For the compound `Nc1ncc(-c2ccc(NC(=O)Nc3cccnc3)cc2)cc1-c1nnnn1-c1cccc(F)c1F` [I-A-278], the pKi is 6.00 to 7.00.

Take `Cc1c(Cl)cccc1-n1nnnc1-c1cc(-c2cccnc2)cnc1N` [I-A-551]: the pKi was 6.00 to 7.00.

The compound `Nc1ncc(-c2cnn(C3CCCNCC3)c2)cc1-c1nnnn1-c1cccc(F)c1F` (stereo not drawn) [I-A-428] gave a pKi not below 7.00.

In the case of `CC(=O)Nc1cccc(-c2cnc(N)c(-c3nnnn3-c3c(Cl)cccc3Cl)c2)c1` [I-A-611], the pKi is 6.00 to 7.00.

In turn, `Nc1ncc(C2=CCN(C(=O)[C@@H]3CCOC3)CC2)cc1-c1nnnn1-c1cccc(F)c1F` [I-A-527] showed a pKi not below 7.00.

The compound `Nc1ncc(-c2ccc(CN3CCN(Cc4ccncc4)CC3)cc2)cc1-c1nnnn1-c1cccc(Cl)c1Cl` [I-A-105] had a pKi of 6.00 to 7.00.

Regarding `CN(C)Cc1ccc(-c2cnc(N)c(-c3nncn3-c3cccc(F)c3F)n2)cc1` [I-A-8], the negative logarithm of the Ki (pKi) was not below 7.00.

`CC(=O)Nc1ccc(-c2cnc(N)c(-c3nnnn3-c3c(Cl)cccc3Cl)c2)cc1` [I-A-621]: the pKi was 6.00 to 7.00.

With `NC(=O)[C@@H]1CCCN1Cc1ccc(-c2cnc(N)c(-c3nnnn3-c3cccc(F)c3F)c2)cc1` [I-A-132], the pKi is not below 7.00.

For the compound `Nc1ncc(-c2cnn(C3CCNCC3)c2)cc1-c1nnnn1-c1c(F)ccc(Cl)c1F` [I-A-382], the pKi was not below 7.00.

As for `CC(=O)N1CCC[C@H]1C(=O)N1CC=C(c2cnc(N)c(-c3nnnn3-c3cccc(F)c3F)c2)CC1` [I-A-641], the negative logarithm of the Ki (pKi) is 6.00 to 7.00.

As for `Nc1ncc(-c2ccc3c(c2)OCCO3)cc1-c1nnnn1-c1cccc(F)c1F` [I-A-235], the pKi was not below 7.00.

`Nc1ncc(-c2ccccc2Cl)cc1-c1nnnn1-c1cccc(F)c1F` [I-A-224] had a pKi of 6.00 to 7.00.

Regarding `COc1ccc(-c2cnc(N)c(-c3nnnn3-c3cccc(F)c3F)c2)cc1F` [I-A-290], the pKi is not below 7.00.

`Nc1ncc(-c2nc3c(s2)CNCC3)cc1-c1nnnn1-c1cccc(F)c1F` [I-A-465] showed a pKi of 6.00 to 7.00.

For the compound `CN(C)c1ccc(-c2cnc(N)c(-c3nncn3-c3cccc(Cl)c3Cl)c2)cc1` [I-A-72], the pKi was 6.00 to 7.00.

For the compound `CN1C2CCC1CC(n1cc(-c3cnc(N)c(-c4nnnn4-c4cccc(F)c4F)c3)nn1)C2` (stereo not drawn) [I-A-484], the negative-log Ki (pKi) is not below 7.00.

Compound `Nc1ncc(-c2cnn([C@@H]3CCNC3)c2)cc1-c1nnnn1-c1cccc(Cl)c1Cl` [I-A-408] gave a pKi not below 7.00.

On to `CC(C)OC(=O)N1CC=C(c2cnc(N)c(-c3nnnn3-c3cccc(F)c3F)c2)CC1` [I-A-508], for which the pKi was not below 7.00.

`COCC(=O)Nc1ccc(-c2cnc(N)c(-c3nnnn3-c3cccc(F)c3F)c2)cc1` [I-A-342] gave a pKi not below 7.00.

With `Nc1ncc(-c2cccnc2)cc1-c1nnnn1-c1cccc(Cl)c1F` [I-A-557], the pKi was 6.00 to 7.00.

`CC(C)C(=O)Nc1ccc(-c2cnc(N)c(-c3nnnn3-c3cccc(F)c3F)c2)cc1` [I-A-193] showed a pKi not below 7.00.

`COc1ccncc1-c1cnc(N)c(-c2nncn2-c2cccc(F)c2F)c1` [I-A-110] had a pKi of 6.00 to 7.00.

Regarding `CC(=O)Nc1cccc(-c2cnc(N)c(-c3nnnn3-c3c(F)cccc3Cl)c2)c1` [I-A-612], the pKi was 6.00 to 7.00.

As for `Nc1ncc(-c2cnn(C[C@@H]3CCCN3)c2)cc1-c1nnnn1-c1cccc(F)c1F` [I-A-500], the pKi is not below 7.00.

Regarding `CN(C)Cc1ccc(-c2cnc(N)c(-c3nnnn3-c3c(Cl)cccc3Cl)c2)cc1` [I-A-629], the pKi was not below 7.00.

`Nc1ncc(-c2cscn2)nc1-c1nnnn1-c1ccccc1F` [I-A-541] gave a pKi of 6.00 to 7.00.

Regarding `Nc1ncc(C2=CCN(C(=O)c3cccnc3)CC2)cc1-c1nnnn1-c1cccc(F)c1F` [I-A-507], the pKi is not below 7.00.

Compound `Nc1ncc(-c2ccc(F)c(Cl)c2)cc1-c1nncn1-c1cccc(F)c1F` [I-A-111] showed a pKi of 6.00 to 7.00.

Compound `Nc1ncc(-c2ccccc2O)cc1-c1nncn1-c1cccc(Cl)c1Cl` [I-A-75] had a pKi of 6.00 to 7.00.

`Nc1ncc(-c2ccncc2)nc1-c1nnc(O)n1-c1cccc(F)c1F` [I-A-15] had a pKi of 6.00 to 7.00.

Compound `COc1ccc(-c2cnc(N)c(-c3nncn3-c3cccc(Cl)c3Cl)c2)cc1` [I-A-69] had a pKi of 6.00 to 7.00.

In the case of `Nc1ncc(-c2cccc(CN3CCCC3)c2)cc1-c1nnnn1-c1cccc(Cl)c1Cl` [I-A-109], the pKi was not below 7.00.

Consider `Cc1c(F)cccc1-n1nnnc1-c1cc(-c2ccc(CN3CCCC3)cc2)cnc1N` [I-A-598], for which the pKi was 6.00 to 7.00.

Take `Nc1ncc(-c2ccc(N3CCCC3)nc2)cc1-c1nncn1-c1cccc(F)c1F` [I-A-40]: the pKi was 6.00 to 7.00.

`Nc1ncc(-c2ccn[nH]2)cc1-c1nnnn1-c1cccc(F)c1F` [I-A-248] gave a pKi of 6.00 to 7.00.

Compound `NCN1CCN(Cc2ccc(-c3cnc(N)c(-c4nnnn4-c4cccc(Cl)c4Cl)c3)cc2)CC1` [I-A-108] had a pKi not below 7.00.

Take `Nc1ncc(-c2cnn(C3CNC3)c2)cc1-c1nnnn1-c1cccc(Cl)c1F` [I-A-650]: the pKi was not below 7.00.

In turn, `CN[C@@H](C)c1ccc(-c2cnc(N)c(-c3nnnn3-c3cccc(F)c3F)c2)cc1` [I-A-351] had a negative-log Ki (pKi) not below 7.00.

Take `Nc1ncc(-c2cccnc2)nc1-c1nncn1-c1cccc(F)c1F` [I-A-2]: the pKi was 6.00 to 7.00.

`Nc1ncc(-c2cc(O)c(F)c(F)c2)cc1-c1nnnn1-c1cccc(F)c1F` [I-A-291] gave a pKi of 6.00 to 7.00.

Turning to `Nc1ncc(-c2cccc(NC(=O)CN3CCCC3)c2)cc1-c1nnnn1-c1cccc(F)c1F` [I-A-259], the pKi is not below 7.00.

As for `Nc1ncc(-c2nc3c(s2)CNCC3)cc1-c1nnnn1-c1cccc(Cl)c1Cl` [I-A-467], the pKi is 6.00 to 7.00.

On to `Nc1ncc(-c2ccc(C(=O)NC3CC3)cc2)cc1-c1nnnn1-c1cccc(F)c1F` [I-A-137], for which the pKi is not below 7.00.

`Cn1cncc1-c1cnc(N)c(-c2nnnn2-c2cccc(F)c2F)c1` [I-A-496] had a pKi of 6.00 to 7.00.

Take `Nc1ncc(-c2cc(F)ccc2O)cc1-c1nnnn1-c1cccc(F)c1F` [I-A-292]: the pKi was not below 7.00.

For the compound `CC(=O)Nc1cccc(-c2cnc(N)c(-c3nnnn3-c3cccc(Cl)c3)c2)c1` [I-A-359], the negative-log Ki (pKi) is 6.00 to 7.00.

In turn, `Nc1ncc(-c2csc(C3CCNCC3)c2)cc1-c1nnnn1-c1cccc(F)c1F` [I-A-463] gave a pKi not below 7.00.

For `Nc1ncc(-c2cnn(C3CCNCC3)c2)cc1-c1nnnn1-c1cccc(F)c1Cl` [I-A-385], the negative logarithm of the Ki (pKi) is not below 7.00.
